# Laboratory results published in the supplement of paper PMC10933113.
# Counter-ions that a name gives are not always drawn. ± gives the uncertainty stated by the source.
# How the values were obtained:
# [1] = tested on: KeratinoSens (HaCaT ARE-luciferase) cells; assay: cytotoxicity AC50 (CellTiter-Fluor viability); higher = less cytotoxic; conditions: exposure time: 24 h
# [2] = tested on: KeratinoSens (HaCaT ARE-luciferase) cells; assay: efficacy of ARE luciferase induction relative to DMSO (% activity over DMSO); higher = stronger induction; conditions: exposure time: 24 h
# [3] = tested on: cysteine peptide Ac-RFAACAA-COOH; assay: efficacy of cysteine peptide change (negative = depletion) (% activity); higher = less depletion; conditions: incubation time: 24 h
# [4] = tested on: lysine peptide Ac-RFAAKAA-COOH; assay: efficacy of lysine peptide change (negative = depletion) (% activity); higher = less depletion; conditions: incubation time: 24 h
# [5] = tested on: KeratinoSens (HaCaT ARE-luciferase) cells; assay: AC50 of Nrf2/ARE luciferase induction; higher = less potent; conditions: exposure time: 24 h
# [6] = tested on: THP-1; assay: efficacy of IL-8 induction relative to DMSO (% activity); higher = stronger induction; conditions: exposure time: 18 h
# [7] = tested on: cysteine peptide Ac-RFAACAA-COOH; assay: AC50 of cysteine peptide concentration-response (direction given by sign of efficacy); higher = less potent; conditions: incubation time: 24 h
SMILES,cytotoxicity AC50 [1] [µM],efficacy of ARE luciferase induction [2],efficacy of cysteine peptide change [3],efficacy of lysine peptide change [4],AC50 of Nrf2/ARE luciferase induction [5] [µM],efficacy of IL-8 induction [6],AC50 [7] [µM]
COc1ccc2cc(CCC(C)=O)ccc2c1 [Nabumetone],7.94,124 ± 44,-3.44 ± 6,-2.87 ± 17,3.98,0.27 ± 5.5,–
CC(COc1ccc(Oc2ccccc2)cc1)Oc1ccccn1 (stereo not given) [Pyriproxyfen],–,83.9 ± 13,8.09 ± 7,-7.08 ± 11,34.9,4.2 ± 1.8,–
C[C@]12CC[C@H](O)C[C@H]1CC[C@@H]1[C@@H]2C[C@@H](O)[C@]2(C)[C@@H](C3=CC(=O)OC3)CC[C@]12O [Digoxigenin],4.65 ± 1.6,600 ± 260,2.17 ± 3.8,68.2 ± 22,5.7,21.1 ± 4.1,–
CCOCN(C(=O)CCl)c1c(C)cccc1CC [Acetochlor],55.2 ± 14,98.8 ± 68,11.4 ± 11,79.9 ± 12,53.6,8.32 ± 8.4,–
Cl/C=C\C[N+]12CN3CN(CN(C3)C1)C2 [Chloroallyl methenamine chloride],–,1290 ± 60,-102 ± 6.1,-14.5 ± 14,73.7,6.91 ± 6.8,19.6 ± 4.8
COc1ccc(-c2cc(=S)ss2)cc1 [Anethole trithione],34.2 ± 2.2,96.9 ± 78,-84.1 ± 12,-0.11 ± 7.8,22,38.6 ± 10,–
Cc1ccc(O)c(-n2nc3ccccc3n2)c1 [2-(2H-Benzotriazol-2-yl)-4-methylphenol],–,95.5 ± 93,3.66 ± 6.3,-3.82 ± 16,22.4,0,–
O=CC(=O)c1ccccc1 [Phenyl glyoxal],–,522 ± 80,-26.9 ± 24,-25.8 ± 6.1,35.5,0,–
O=C(Oc1ccccc1)c1cccc(C(=O)Oc2ccccc2)c1 [Diphenyl isophthalate],–,56.2 ± 20,-4.99 ± 8.6,-2 ± 3.5,29.8,0,–
"Nc1ccc(N)cc1 [1,4-Benzenediamine]",–,54.5 ± 20,-107 ± 20,61 ± 17,39.8,19.1 ± 5.7,9.58 ± 2.8
ClC1=C(Cl)C2(Cl)C3C(Cl)C(Cl)CC3C1(Cl)C2(Cl)Cl (stereo not given) [Chlordane],41.4 ± 2.8,-18.6 ± 53,-56.1 ± 16,-2.38 ± 11,–,49.6 ± 10,50.3 ± 5.8
C[C@]12C=CC3=C4CCC(=O)C=C4CC[C@H]3[C@@H]1CC[C@@H]2O [17beta-Trenbolone],50.9 ± 20,189 ± 53,–,–,39.1,32.2 ± 36,–
"CN(C)c1ccc(N)cc1 [N,N-Dimethyl-p-phenylenediamine]",–,84.5 ± 29,-130 ± 19,-17.1 ± 8.3,17.1,21 ± 7.2,8.18 ± 2.3
O=C(O)c1ccccc1C(=O)Nc1cccc2ccccc12 [Naptalam*],25.1,61.4 ± 78,-104 ± 4.3,10.2 ± 26,–,7.99 ± 7,4 ± 1.3
NC(=O)n1c(O)c(C(=O)c2cccs2)c2cc(Cl)ccc21 [Tenidap*],53.4 ± 15,19.7 ± 5.4,-110 ± 11,11.2 ± 11,–,4.22 ± 7.3,50.1
CCCOC/C(=N\c1ccc(Cl)cc1C(F)(F)F)n1ccnc1 [Triflumizole],–,134 ± 58,4.17 ± 7.2,41.1 ± 13,63.9,38.3 ± 1.3,–

SMILES,cytotoxicity AC50 [1] [µM],efficacy of ARE luciferase induction [2],efficacy of cysteine peptide change [3],efficacy of lysine peptide change [4],AC50 of Nrf2/ARE luciferase induction [5] [µM],efficacy of IL-8 induction [6],AC50 [7] [µM]
O=C(Nc1ccccc1)c1cc([N+](=O)[O-])ccc1Cl [2-Chloro-5-nitro-N-phenylbenzamide],–,92.4 ± 39,-15.7 ± 6.5,58.4 ± 17,40,10.4 ± 3,–
C=CC(=O)OCCn1c(=O)n(CCOC(=O)C=C)c(=O)n(CCOC(=O)C=C)c1=O,24.7 ± 9.8,47.2 ± 67,-99.7 ± 6.5,-0.37 ± 14,–,20.8 ± 5.9,7.11 ± 0.82
[Cl][Cd][Cl] [Cadmium II chloride],37.3 ± 6.7,146 ± 94,11.2 ± 30,4.14 ± 11,18.9,19.4 ± 2.2,–
C=CCOC(Cn1ccnc1)c1ccc(Cl)cc1Cl (stereo not given) [Imazalil sulfate],–,40.5 ± 36,38.5 ± 11,166 ± 21,29.9,0,–
O=C1Nc2ccccc2C1(c1ccc(O)cc1)c1ccc(O)cc1 [Oxyphenisatin],–,47.8 ± 12,-16.7 ± 14,39.7 ± 4.7,19,0,–
CCOP(=S)(OCC)SC(CCl)N1C(=O)c2ccccc2C1=O (stereo not given) [Dialifor],66.8 ± 15,63 ± 32,-101 ± 9.9,-69.5 ± 7.4,–,5.64 ± 12,3.87 ± 0.66
O=C(Nc1cccc(Cl)c1)OCC#CCCl [Barban],55.2 ± 14,101 ± 30,-52.5 ± 14,33.7 ± 4.6,35.5,34.1 ± 7.5,–
COC(=O)Nc1nc2ccc(C(=O)C3CC3)cc2[nH]1 [Cyclobendazole],3 ± 0.85,21.4 ± 9.4,-42.3 ± 2.6,-14 ± 5.3,–,24.9 ± 13,10.1 ± 5.7
O=C(OCc1ccccc1)c1ccc(O)cc1 [Benzylparaben],–,52.2 ± 9.2,0,90.8 ± 51,12.1,0,–
CC(C)=CCOc1ccc(/C=C/C(=O)c2ccc(OCC=C(C)C)cc2OCC(=O)O)cc1 [Sofalcone],–,521 ± 240,54.9,-12.4 ± 20,33,0,–
CCN(CC)CCOc1ccc2c(c1)C(=O)c1cc(OCCN(CC)CC)ccc1-2 [Tilorone],12.6 ± 1.4,293 ± 85,-43 ± 15,81.7 ± 28,22.1,27.2 ± 3.2,–
CCN(CC)CCNc1ccc(CNC=O)c2sc3ccc(OC)cc3c(=O)c12,59.5 ± 26,189 ± 110,–,–,63.9,3.79 ± 6.6,–
O=C1C(Cl)=C(Cl)C(=O)C(Cl)=C1Cl [Chloranil],28.2,32.8 ± 9.5,-73.9 ± 2.3,-124 ± 7.8,–,25.9 ± 3.2,0.65 ± 0.34
C=C1C[C@@H]2[C@H](CC[C@]3(C)C(=O)CC[C@@H]23)[C@@]2(C)C=CC(=O)C=C12 [Exemestane],–,109 ± 64,-9.57 ± 9.8,97.5 ± 6.3,33,3.01 ± 5.2,–
O=[N+]([O-])c1c(Cl)c(Cl)c(Cl)c(Cl)c1Cl [Pentachloronitrobenzene],–,47.4 ± 32,-3.67 ± 6.3,5.1 ± 8.8,42.1,12.2 ± 11,–
